Assay results reported in ChEMBL document CHEMBL6178015, “Discovery of a Novel Serine-Targeting Covalent Inhibitor against HCES2A for Treating Drug-induced Diarrhea and Ulcerative Colitis” (J Med Chem, 2025).
Activity calls are given as the source filed them. The rule behind the calls is not given here.

Tests used:
[1] = Inhibition of human CES2A using fluorescein diacetate as substrate preincubated for 3 mins followed by substrate addition and measured after 30 mins by fluorescence microplate reader
[2] = Inhibition of human CES1A using NLMe as substrate preincubated for 3 mins followed by substrate addition and measured after 20 mins by chemiluminescence analysis
Homo sapiens [3] = organism: Homo sapiens; test: Selectivity index, ratio of IC50 for inhibition of human CES1A to IC50 for inhibition of human CES2A
[4] = Irreversible inhibition of human CES2A using fluorescein diacetate as substrate preincubated for 33 mins followed by substrate addition by fluorescence microplate reader
Homo sapiens [5] = organism: Homo sapiens; test: Irreversible inhibition of human CES2A at 0.02 nM preincubated for 33 mins and measured after 8 hrs dialysis by fluorescence microplate reader; details: time 513.0 min
[6] = Irreversible inhibition of human CES2A assessed as inhibition constant incubated for 5 to 30 mins
Homo sapiens [7] = organism: Homo sapiens; test: Irreversible inhibition of human CES2A assessed as inactivation constant incubated for 5 to 30 mins; details: time 5-30 min
HepG2 = test: Inhibition of human CES2A in HepG2 cells assessed as decrease in green fluorescence at 5 to 60 nM incubated for 1 hrs by NCEN and Hoechst 33342 staining based assay; type: cell-based; details: dose 5-60 nM
[8] = Inhibition of human CES2A in HepG2 cells incubated for 1 hrs by NCEN and Hoechst 33342 staining based assay; type: cell-based
Mus musculus [9] = test: Reversal of irinotecan-induced gut toxicity in C57BL/6J mouse bearing MC38 cells assessed as reduction in diarrhea at 30 to 60 mg/kg,po administered daily and measured after 14 days; type: functional, organism-based; details: dose 30-60 mg/kg, time 14.0 day
Mus musculus [10] = test: Reversal of irinotecan-induced gut toxicity in C57BL/6J mouse bearing MC38 cells assessed as weight recovery at 30 to 60 mg/kg,po administered daily and measured after 14 days; type: functional, organism-based; details: dose 30-60 mg/kg, time 14.0 day
Mus musculus [11] = test: Reversal of irinotecan-induced gut toxicity in C57BL/6J mouse bearing MC38 cells assessed as reduction in colon shortening at 30 to 60 mg/kg,po administered daily and measured after 14 days; type: functional, organism-based; details: dose 30-60 mg/kg, time 14.0 day
Homo sapiens [12] = organism: Homo sapiens; test: Potency index, ratio of LC-20W IC50 to test compound IC50 for inhibition of human CES2A using fluorescein diacetate as substrate
Mus musculus [13] = test: Reversal of irinotecan-induced gut toxicity in C57BL/6J mouse bearing MC38 cells assessed as amelioration of epithelial crypts loss at 30 to 60 mg/kg,po administered daily and measured after 14 days by H and E staining based analysis; type: functional, organism-based; details: dose 30-60 mg/kg, time 14.0 day
Mus musculus [14] = test: Reversal of irinotecan-induced gut toxicity in C57BL/6J mouse bearing MC38 cells assessed as amelioration of inflammatory cell infiltration loss at 30 to 60 mg/kg,po administered daily and measured after 14 days by H and E staining based analysis; type: functional, organism-based; details: dose 30-60 mg/kg, time 14.0 day
Mus musculus [15] = test: Reversal of irinotecan-induced gut toxicity in C57BL/6J mouse bearing MC38 cells assessed as amelioration of goblet cell apoptosis at 30 to 60 mg/kg,po administered daily and measured after 14 days by H and E staining based analysis; type: functional, organism-based; details: dose 30-60 mg/kg, time 14.0 day
Mus musculus [16] = test: Reversal of irinotecan-induced gut toxicity in C57BL/6J mouse bearing MC38 cells assessed as restoration of IL-6 levels in colon tissues at 30 to 60 mg/kg,po administered daily and measured after 14 days by ELISA; type: functional, organism-based; details: dose 30-60 mg/kg, time 14.0 day
Mus musculus [17] = test: Reversal of irinotecan-induced gut toxicity in C57BL/6J mouse bearing MC38 cells assessed as restoration of IL-1beta levels in colon tissues at 30 to 60 mg/kg,po administered daily and measured after 14 days by ELISA; type: functional, organism-based; details: dose 30-60 mg/kg, time 14.0 day
Mus musculus [18] = test: Reversal of irinotecan-induced gut toxicity in C57BL/6J mouse bearing MC38 cells assessed as restoration of TNF-alpha levels in colon tissues at 30 to 60 mg/kg,po administered daily and measured after 14 days by ELISA; type: functional, organism-based; details: dose 30-60 mg/kg, time 14.0 day
Mus musculus [19] = test: Reversal of irinotecan-induced gut toxicity in C57BL/6J mouse bearing MC38 cells assessed as increase in ZO-1 expression level in colon tissues at 30 to 60 mg/kg,po administered daily and measured after 14 days by immunohistochemical analysis; type: functional, organism-based; details: dose 30-60 mg/kg, time 14.0 day
Mus musculus [20] = test: Reversal of irinotecan-induced gut toxicity in C57BL/6J mouse bearing MC38 cells assessed as increase in claudin-1 expression level in colon tissues at 30 to 60 mg/kg,po administered daily and measured after 14 days by immunohistochemical analysis; type: functional, organism-based; details: dose 30-60 mg/kg, time 14.0 day
Mus musculus [21] = test: Reversal of irinotecan-induced gut toxicity in C57BL/6J mouse bearing MC38 cells assessed as change in tumor size at 30 to 60 mg/kg,po administered daily and measured after 14 days; type: functional, organism-based; details: dose 30-60 mg/kg, time 14.0 day
Mus musculus [22] = test: Reversal of irinotecan-induced gut toxicity in C57BL/6J mouse bearing MC38 cells assessed as effect on tumor volume at 30 to 60 mg/kg,po administered daily and measured after 14 days; type: functional, organism-based; details: dose 30-60 mg/kg, time 14.0 day
Mus musculus [23] = test: Reversal of irinotecan-induced gut toxicity in C57BL/6J mouse bearing MC38 cells assessed as effect on tumor weight at 30 to 60 mg/kg,po administered daily and measured after 14 days; type: functional, organism-based; details: dose 30-60 mg/kg, time 14.0 day
Mus musculus [24] = test: Antiinflammatory activity against DSS-induced ulcerative colitis mouse model assessed as alleviation in body weight loss at 30 to 60 mg/kg,IG administered once daily 7 days; type: functional, organism-based; details: dose 30-60 mg/kg, time 7.0 day
Mus musculus [25] = test: Antiinflammatory activity against DSS-induced ulcerative colitis mouse model assessed as inhibition of colon contracture at 30 to 60 mg/kg,IG administered once daily 7 days; type: functional, organism-based; details: dose 30-60 mg/kg, time 7.0 day
Mus musculus [26] = test: Antiinflammatory activity against DSS-induced ulcerative colitis mouse model assessed as decrease in DAI score at 30 to 60 mg/kg,IG administered once daily 7 days; type: functional, organism-based; details: dose 30-60 mg/kg, time 7.0 day
Mus musculus [27] = test: Antiinflammatory activity against DSS-induced ulcerative colitis mouse model assessed as preservation of colonic mucosal structure at 30 to 60 mg/kg,IG administered once daily 7 days by H and E staining based analysis; type: functional, organism-based; details: dose 30-60 mg/kg, time 7.0 day
Mus musculus [28] = test: Antiinflammatory activity against DSS-induced ulcerative colitis mouse model assessed as reduction in crypt destruction in colon tissues at 30 to 60 mg/kg,IG administered once daily 7 days by H and E staining based analysis; type: functional, organism-based; details: dose 30-60 mg/kg, time 7.0 day
Mus musculus [29] = test: Antiinflammatory activity against DSS-induced ulcerative colitis mouse model assessed as reduction in inflammatory infiltration in lamina propria at 30 to 60 mg/kg,IG administered once daily 7 days by H and E staining based analysis; type: functional, organism-based; details: dose 30-60 mg/kg, time 7.0 day
Mus musculus [30] = test: Antiinflammatory activity against DSS-induced ulcerative colitis mouse model assessed as restoration of IL-6 levels in colon tissues at 30 to 60 mg/kg,IG administered once daily 7 days by ELISA; type: functional, organism-based; details: dose 30-60 mg/kg, time 7.0 day
Mus musculus [31] = test: Antiinflammatory activity against DSS-induced ulcerative colitis mouse model assessed as restoration of IL-1beta levels in colon tissues at 30 to 60 mg/kg,IG administered once daily 7 days by ELISA; type: functional, organism-based; details: dose 30-60 mg/kg, time 7.0 day
Mus musculus [32] = test: Antiinflammatory activity against DSS-induced ulcerative colitis mouse model assessed as restoration of TNF-alpha levels in colon tissues at 30 to 60 mg/kg,IG administered once daily 7 days by ELISA; type: functional, organism-based; details: dose 30-60 mg/kg, time 7.0 day
Mus musculus [33] = test: Antiinflammatory activity against DSS-induced ulcerative colitis mouse model assessed as restoration of colon histology at 700 mg/kg,IG administered once daily 7 days by AB-PAS staining based analysis; type: functional, organism-based; details: time 7.0 day
Mus musculus [34] = test: Antiinflammatory activity against DSS-induced ulcerative colitis mouse model assessed as upregulation of ZO-1 expression in colon tissues at 700 mg/kg,IG administered once daily 7 days by immunohistochemical analysis; type: functional, organism-based; details: time 7.0 day
Mus musculus [35] = test: Antiinflammatory activity against DSS-induced ulcerative colitis mouse model assessed as upregulation of occludin expression in colon tissues at 700 mg/kg,IG administered once daily 7 days by immunohistochemical analysis; type: functional, organism-based; details: time 7.0 day
Mus musculus [36] = test: Antiinflammatory activity against DSS-induced ulcerative colitis mouse model assessed as upregulation of claudin-1 expression in colon tissues at 700 mg/kg,IG administered once daily 7 days by immunohistochemical analysis; type: functional, organism-based; details: time 7.0 day
hERG (KCNH2) = hERG (KCNH2) (Homo sapiens, UniProt Q12809); test: Inhibition of hERG expressed in HEK293 cells at 10 uM relative to control; type: toxicity, cell-based; details: HEK293 cells that express hERG
Sequence of hERG (KCNH2) (Q12809 whole entry): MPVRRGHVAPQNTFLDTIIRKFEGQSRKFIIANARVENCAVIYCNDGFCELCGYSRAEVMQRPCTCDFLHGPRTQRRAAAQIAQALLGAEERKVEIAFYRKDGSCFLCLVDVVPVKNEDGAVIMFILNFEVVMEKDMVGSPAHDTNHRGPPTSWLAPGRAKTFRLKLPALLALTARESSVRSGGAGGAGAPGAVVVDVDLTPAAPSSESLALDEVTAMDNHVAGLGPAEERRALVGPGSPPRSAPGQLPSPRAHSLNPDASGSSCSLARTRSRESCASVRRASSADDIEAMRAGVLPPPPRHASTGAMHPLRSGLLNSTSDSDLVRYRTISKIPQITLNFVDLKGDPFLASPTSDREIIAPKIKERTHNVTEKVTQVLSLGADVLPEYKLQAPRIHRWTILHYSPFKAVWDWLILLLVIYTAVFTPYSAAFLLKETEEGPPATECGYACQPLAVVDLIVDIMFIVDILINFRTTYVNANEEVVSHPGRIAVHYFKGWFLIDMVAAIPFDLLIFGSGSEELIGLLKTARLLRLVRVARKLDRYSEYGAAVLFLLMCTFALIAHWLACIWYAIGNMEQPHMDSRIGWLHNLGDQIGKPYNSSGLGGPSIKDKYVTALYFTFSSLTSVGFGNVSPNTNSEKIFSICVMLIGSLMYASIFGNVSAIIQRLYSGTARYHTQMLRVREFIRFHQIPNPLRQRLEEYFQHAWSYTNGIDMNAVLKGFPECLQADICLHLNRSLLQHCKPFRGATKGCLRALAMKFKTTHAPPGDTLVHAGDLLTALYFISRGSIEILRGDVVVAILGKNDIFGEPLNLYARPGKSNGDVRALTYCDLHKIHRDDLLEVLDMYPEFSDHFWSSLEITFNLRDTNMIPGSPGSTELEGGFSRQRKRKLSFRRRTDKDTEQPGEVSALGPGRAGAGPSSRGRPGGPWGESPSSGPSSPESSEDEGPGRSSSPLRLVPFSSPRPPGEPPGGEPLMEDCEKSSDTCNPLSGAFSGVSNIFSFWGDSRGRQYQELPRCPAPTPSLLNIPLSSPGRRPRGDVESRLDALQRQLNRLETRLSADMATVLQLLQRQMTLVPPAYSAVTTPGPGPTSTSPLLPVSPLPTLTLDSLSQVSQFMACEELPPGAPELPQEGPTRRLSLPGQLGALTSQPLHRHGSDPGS

[37] = molecular target: Voltage-gated inwardly rectifying potassium channel KCNH2 (Homo sapiens, UniProt Q12809); test: Inhibition of hERG expressed in HEK293 cells; type: toxicity, cell-based
Sequence of Voltage-gated inwardly rectifying potassium channel KCNH2 (Q12809 whole entry): as above

[38] = Irreversible inhibition of human CES2A using fluorescein diacetate as substrate preincubated for 3 mins followed by substrate addition by fluorescence microplate reader

## CCCCCCCCC(=O)c1cccc2oc(-c3cc(OC)ccc3OC(=O)N3CCCC3)cc12
[1]
  IC50: 0.118 nM
[2]
  IC50: 6.95 nM
Homo sapiens [3]
  Ratio IC50: 59
[4]
  IC50: 0.028 nM
Homo sapiens [5]
  inhibition: Active
[6]
  Ki: 0.43 nM
Homo sapiens [7]
  Kinact: 0.052 min⁻¹
HepG2
  inhibition: Active
[8]
  IC50: 19.6 nM
Mus musculus [9]
  Activity: Active
Mus musculus [10]
  Activity: Active
Mus musculus [11]
  Activity: Active
Homo sapiens [12]
  Ratio IC50: 13
Mus musculus [13]
  Activity: Active
Mus musculus [14]
  Activity: Active
Mus musculus [15]
  Activity: Active
Mus musculus [16]
  Activity: Active
Mus musculus [17]
  Activity: Active
Mus musculus [18]
  Activity: Active
Mus musculus [19]
  Activity: Active
Mus musculus [20]
  Activity: Active
Mus musculus [21]
  Activity: inactive
Mus musculus [22]
  Activity: Active
Mus musculus [23]
  Activity: inactive
Mus musculus [24]
  Activity: Active
Mus musculus [25]
  Activity: Active
Mus musculus [26]
  Activity: Active
Mus musculus [27]
  Activity: Active
Mus musculus [28]
  Activity: Active
Mus musculus [29]
  Activity: Active
Mus musculus [30]
  Activity: Active
Mus musculus [31]
  Activity: Active
Mus musculus [32]
  Activity: Active
Mus musculus [33]
  Activity: Active
Mus musculus [34]
  Activity: Active
Mus musculus [35]
  Activity: Active
Mus musculus [36]
  Activity: Active
hERG (KCNH2)
  inhibition at 10 µM: 14.6%
[37]
  IC50: > 10000 nM
[38]
  IC50: 0.12 nM
